Assay results taken from patent publication US20260109731A1, “NE[…] USE THEREOF” (HUNAN MINGRUI PHARMACEUTICAL CO., LTD., priority 2023, published 2026).
“And” between values parts separate entries of the source, which are not always exact repeats. Equal entries are not always repeated.

What was measured:
[1] = Pharmacokinetic analysis of oral gavage administration in female rats
Procedure: (§1) • Female SD rats (body weight: 200 g to 220 g) were purchased from BEIJING HFK BIOSCIENCE CO., LTD.
60 female SD rats were divided into two groups (Aoral and Boral), with 30 rats per group (5 rats per blood collection time point). The drugs Aoral and Boral were administered via oral gavage administration at 12 mg/kg each (about 1.6 mL of drug solution). Blood was collected from the orbital venous plexus at each time point (5 min, 30 min, 1 h, 2 h, 4 h, and 8 h) after administration, respectively, anticoagulated with heparin, and centrifuged, and then the plasma was separated and stored at −80° C. for later testing. At 8 h after blood collection, the animals were sacrificed, and the brain and Liver tissues were taken and stored at −80° C. for later testing.
(§2) 100 μL of plasma sample, 10 μL of internal standard solution (100 ng/mL testosterone D-3 solution), and 310 μL of acetonitrile were accurately measured, uniformly mixed by vortexing, and centrifuged (14000 rpm, 4° C.), and a resulting supernatant was taken and detected using UPLC-MS/MS (the analysis method was the same as that in pharmacokinetic analysis in mice).
(§3) About 100 mg of brain or liver tissue sample was taken, and accurately weighed. 100 μL of water and 400 μL acetonitrile were accurately added thereto, and a resulting mixture was subjected to homogenization. 100 μL of brain or liver tissue homogenate, 10 μL of internal standard solution (100 ng/mL testosterone D-3 solution), and 310 μL of acetonitrile were accurately measured, uniformly mixed by vortexing, and centrifuged (14000 rpm, 4° C.), and a resulting supernatant was taken and detected using UPLC-MS/MS (the analysis method was the same as that in pharmacokinetic analysis in mice).

[2] = Pharmacokinetic analysis of tail vein administration in mice; conditions: female, ICR, mouse, 5 mg/kg
Procedure: Female ICR mice (body weight: 20 g to 22 g) were purchased from BEIJING HFK BIOSCIENCE CO., LTD.
The animals were sacrificed at blood collection time points (5 min, 1 h and 8 h) for brain tissue collection, and the collected brain tissues were stored at −80° C. for later testing.
100 μL of plasma sample, 10 μL of internal standard solution (100 ng/mL testosterone D-3 solution), and 310 μL of acetonitrile were accurately measured, uniformly mixed by vortexing, and centrifuged (14000 rpm, 4° C.), and a resulting supernatant was taken to obtain the plasma sample.
as §3, with “brain” for “brain or liver”, “weighed,” for “weighed.”, “to obtain” for “and detected using UPLC-MS/MS (the analysis method was”, “brain tissue sample.” for “same as that in pharmacokinetic analysis in mice).”
100 μL of blank plasma sample, 10 μL of mixed standard solution, 10 μL of internal standard solution (100 ng/mL testosterone D-3 solution), and 300 μL of acetonitrile were accurately measured, uniformly mixed by vortexing, and centrifuged (14000 rpm, 4° C.), and a resulting supernatant was taken to obtain the plasma matrix standard solution.
About 100 mg of blank brain tissue sample was taken, and accurately weighed, 100 μL of water and 400 μL acetonitrile were accurately added thereto, and a resulting mixture was subjected to homogenization using a homogenizer. 100 μL of brain tissue homogenate, 10 μL of mixed standard solution, 10 μL of internal standard solution (100 ng/mL testosterone D-3 solution) and 300 μL of acetonitrile were accurately measured, uniformly mixed by vortexing, and centrifuged (14000 rpm, 4° C.), and a resulting supernatant was taken to obtain the Brain tissue matrix standard solution.
The UPLC-MS/MS method with testosterone D-3 as the internal standard was used to perform analysis and determination by the standard curve method.

[3] = Pharmacokinetic analysis of tail vein administration in female rats
Procedure: as §1
60 female SD rats were divided into two groups (Aintravenous and Bintravenous), with 30 rats per group (5 rats per blood collection time point). The drugs Aintravenous and Bintravenous were administered via tail vein injection at 3 mg/kg each (about 1.2 mL of drug solution). Blood was collected from the orbital venous plexus at time points (5 min, 30 min, 1 h, 2 h, 4 h, and 8 h) after administration, respectively, anticoagulated with heparin, and centrifuged, and then the plasma was separated and stored at −80° C. for later testing. At 8 h after blood collection, the animals were sacrificed, and the brain and liver tissues were taken and stored at −80° C. for later testing.
as §2, §3

[4] = Pharmacokinetic analysis of oral administration to male rats; assay type: in vivo; conditions: oral gavage 12 mg/kg; for Blood drug concentration: individual rats 1-7
Description: Male SD rats (body weight: 230 g to 250 g) were purchased from BEIJING HFK BIOSCIENCE CO., LTD.

[5] = female, SD, rat, plasma, iv, 3 mg/kg

## CC(=O)[C@H]1CC[C@H]2[C@@H]3CC[C@H]4C[C@H](O[N+](=O)[O-])CC[C@]4(C)[C@H]3CC[C@]12C [Compound 1]
[1]; female SD rats, oral gavage 12 mg/kg vs tail vein 3 mg/kg
  Oral bioavailability: >65%
[1]; female SD rats, oral gavage, 12 mg/kg, sesame oil solution
  clearance: 9.67 mL/min/kg
[1]; female, SD, rat, brain, po, 12 mg/kg
  concentration at 8 h: 1640 ng/g
[1]; female, SD, rat, brain/plasma, po, 12 mg/kg
  Kp at 8 h: 2.95
[1]; female, SD, rat, liver, po, 12 mg/kg
  concentration at 8 h: 3700 ng/g
[1]; female, SD, rat, plasma, oral, 12 mg/kg
  bioavailability: > 65%
[1]; female, SD, rat, plasma, po, 12 mg/kg
  Tmax: > 8 h
[2]; brain, intravenous
  concentration at 5 min: 1140 ng/g
  concentration at 1 h: 652 ng/g
  concentration at 8 h: 31 ng/g
[2]; brain/plasma, intravenous
  Kp at 5 min: 0.65
  Kp at 1 h: 7.58
  Kp at 8 h: 2.27
[2]; plasma, iv
  clearance: 197 mL/min/kg
  half-life: 0.84 h
[3]; female SD rats, intravenous compound 1, 3 mg/kg, 8 h
  level of allopregnanolone in the liver after administration of compound 1: undetectable
[3]; female, SD, rat, brain, intravenous, 3 mg/kg
  concentration at 8 h: 209 ng/g
[3]; female, SD, rat, brain/plasma, intravenous, 3 mg/kg
  Kp at 8 h: 6.68
[3]; female, SD, rat, liver, iv, 3 mg/kg
  concentration at 8 h: 193 ng/g
[3]; [5]
  clearance: 87.8 mL/min/kg
  half-life: 0.96 h
[4]; male SD rats, 0.5 h, 12 mg/kg
  Blood drug concentration: 4.1 ng/mL and 5.7 ng/mL and 16.2 ng/mL and 8.7 ng/mL and 8.3 ng/mL and 8.1 ng/mL and 8.4 ng/mL
[4]; male SD rats, 1 h, 12 mg/kg
  Blood drug concentration: 14.1 ng/mL and 18.9 ng/mL and 35.9 ng/mL and 31.5 ng/mL and 22.3 ng/mL and 23.8 ng/mL and 50.6 ng/mL
[4]; male SD rats, 2 h, 12 mg/kg
  Blood drug concentration: 38.2 ng/mL and 85.8 ng/mL and 132.2 ng/mL and 88.8 ng/mL and 111.4 ng/mL and 123 ng/mL and 251.1 ng/mL
[4]; male SD rats, 3 h, 12 mg/kg
  Blood drug concentration: 71.9 ng/mL and 121.8 ng/mL and 288.6 ng/mL and 243.6 ng/mL and 103.9 ng/mL and 130.9 ng/mL and 616.7 ng/mL
[4]; male SD rats, 4 h, 12 mg/kg
  Blood drug concentration: 95.1 ng/mL and 147 ng/mL and 279.6 ng/mL and 252.2 ng/mL and 270.9 ng/mL and 343.8 ng/mL and 318.5 ng/mL
[4]; male SD rats, 5 h, 12 mg/kg
  Blood drug concentration: 250.4 ng/mL and 142.4 ng/mL and 252.4 ng/mL and 284.1 ng/mL and 262.5 ng/mL and 410.7 ng/mL and 582.4 ng/mL
[4]; male SD rats, 6 h, 12 mg/kg
  Blood drug concentration: 259.8 ng/mL and 263.9 ng/mL and 161.2 ng/mL and 260.7 ng/mL and 287.5 ng/mL and 409.8 ng/mL and 687.1 ng/mL
[4]; male SD rats, 8 h, 12 mg/kg
  Blood drug concentration: 121.7 ng/mL and 276.1 ng/mL and 383.6 ng/mL and 523.1 ng/mL and 496.4 ng/mL and 78.9 ng/mL and 556.5 ng/mL
[4]; male SD rats, 10 h, 12 mg/kg
  Blood drug concentration: 167.3 ng/mL and 1144.3 ng/mL and 424.6 ng/mL and 914.9 ng/mL and 382.7 ng/mL and 196.1 ng/mL and 396.3 ng/mL
[4]; male SD rats, 12 h, 12 mg/kg
  Blood drug concentration: 513.5 ng/mL and 873.9 ng/mL and 343.7 ng/mL and 730.7 ng/mL and 234.9 ng/mL and 303.8 ng/mL and 285.4 ng/mL
[4]; male SD rats, 18 h, 12 mg/kg
  Blood drug concentration: 68.5 ng/mL and 110.5 ng/mL and 196.7 ng/mL and 97 ng/mL and 83.3 ng/mL and 73.4 ng/mL and 134.5 ng/mL
[4]; male SD rats, 24 h, 12 mg/kg
  Blood drug concentration: 13.7 ng/mL and 68.5 ng/mL and 61.6 ng/mL and 20.7 ng/mL and 27.6 ng/mL and 13.8 ng/mL and 133.4 ng/mL
[4]; male SD rats, 12 mg/kg
  Tmax: 9.7 h
[4]; male, SD, rat, plasma, po, 12 mg/kg, 0.5 h, mean of 7 rats, read-out: Blood drug concentration, Mean value
  concentration at 0.5 h: 8.5 ng/mL
[4]; male, SD, rat, plasma, po, 12 mg/kg, 1 h, mean of 7 rats, read-out: Blood drug concentration, Mean value
  concentration at 1 h: 28.2 ng/mL
[4]; male, SD, rat, plasma, po, 12 mg/kg, 2 h, mean of 7 rats, read-out: Blood drug concentration, Mean value
  concentration at 2 h: 119 ng/mL
[4]; male, SD, rat, plasma, po, 12 mg/kg, 3 h, mean of 7 rats, read-out: Blood drug concentration, Mean value
  concentration at 3 h: 225 ng/mL
[4]; male, SD, rat, plasma, po, 12 mg/kg, 4 h, mean of 7 rats, read-out: Blood drug concentration, Mean value
  concentration at 4 h: 244 ng/mL
[4]; male, SD, rat, plasma, po, 12 mg/kg, 5 h, mean of 7 rats, read-out: Blood drug concentration, Mean value
  concentration at 5 h: 312 ng/mL
[4]; male, SD, rat, plasma, po, 12 mg/kg, 6 h, mean of 7 rats, read-out: Blood drug concentration, Mean value
  concentration at 6 h: 333 ng/mL
[4]; male, SD, rat, plasma, po, 12 mg/kg, 8 h, mean of 7 rats, read-out: Blood drug concentration, Mean value
  concentration at 8 h: 348 ng/mL
[4]; male, SD, rat, plasma, po, 12 mg/kg, 10 h, mean of 7 rats, read-out: Blood drug concentration, Mean value
  concentration at 10 h: 518 ng/mL
[4]; male, SD, rat, plasma, po, 12 mg/kg, 12 h, mean of 7 rats, read-out: Blood drug concentration, Mean value
  concentration at 12 h: 469 ng/mL
[4]; male, SD, rat, plasma, po, 12 mg/kg, 18 h, mean of 7 rats, read-out: Blood drug concentration, Mean value
  concentration at 18 h: 109 ng/mL
[4]; male, SD, rat, plasma, po, 12 mg/kg, 24 h, mean of 7 rats, read-out: Blood drug concentration, Mean value
  concentration at 24 h: 48.5 ng/mL
[4]; male, SD, rat, plasma, po, 12 mg/kg, read-out: Tmax
  Tmax: ~10 h
[4]; rat, plasma, male SD rats
  AUC(0-inf): 6220 ng·h/mL
  AUC(0-t): 5830 ng·h/mL
  Cmax: 649 ng/mL
  half-life: 4.5 h
